Blank lines part the entries; values can stand above or below the compound they belong to.
Test system: 695427-040-R-J1-PDC complex spheroid viability
Assay: Anticancer human tumor 695427-040-R-J1-PDC patient-derived colon adenocarcinoma cell line growth inhibition [RAS]
Conditions: for viability, T/C: stronger effect = lower value
Description: RAS pathway inhibitors in Combinations in Complex Spheroids
A high-throughput screen of multi-cell type tumor spheroids was designed to identify active combinations of RAS pathway inhibitors and targeted small molecules. Complex spheroids include a stromal component modeled by human endothelial cells (HUVEC) and fibroblasts modeled by human mesenchymal stem cells (MSCs). The concentration ranges selected for each drug and investigational agent were based upon clinically achievable concentrations if the clinical Cmax of the agent was known.
Compounds. The drugs and investigational agents: abemaciclib (NSC768073), cobimetinib (NSC768068), divarasib (GDC6063, NSC841802), docetaxel (NSC628503), GDC-1971 (RLY-1971, NSC841576), gemcitabine (NSC613327), inavolisib (NSC800729), ipatasertib (NSC767898), KB-0742 (NSC834161), MRTX-1133 (NSC836407), osimertinib (NSC779217), RMC-4630 (NSC839698), RMC-6236 (NSC851965), RMC-6291 (NSC852671), Ro-3306 (NSC812927), sapanisertib (NSC764658), SN-38 (NSC673596), staurosporine (NSC755774), SY5609 (NSC837396), and tovorafenib (DAY101, NSC766906), were obtained from the National Cancer Institute (NCI) Developmental Therapeutics Program Chemical Repository. The FDA-approved anticancer drug set is available from the NCI Developmental Therapeutics Program. […] The stock solutions were prepared in dimethyl sulfoxide (DMSO, Sigma-Aldrich, St. Louis, MO, cat. D2650) at 800-fold the tested concentration and stored at -70 degrees C prior to their use. All drugs and investigational agents were tested over a range starting from a high concentration at or near the clinical Cmax and decreasing in half-log increments. If the clinical Cmax for an agent had not been determined, the highest concentration tested was 10 microM.
Cell Culture. All cells were maintained in an incubator at 37 degrees C and 5% CO2 with 95% humidity. The PDC lines were cultured according to standard operating procedures established by the NCI PDMR. All PDCs were thawed and cultured in Matrigel-coated flasks prepared with a working solution of 1X Ham's F-12 nutrient mix, without supplementation (Invitrogen, Waltham, MA, cat. 11765054), 100 U/mL penicillin-streptomycin (Invitrogen, cat. 15140122), and 2.5% Matrigel (Corning Inc., Corning, NY, cat. 354248) for the first three passages. The 362531-283-R-J2-PDC and 782815-120-R-J1-PDC lines were cultured in 6C/Colon 1B media, which includes advanced DMEM/F-12 (Thermo Fisher Scientific, cat. 12634028), 10 mM HEPES (Thermo Fisher Scientific, cat. 15630080), 1X GlutaMAX supplement (Thermo Fisher Scientific, cat. 35050061), 0.1 mg/mL primocin (InvivoGen, San Diego, CA, cat. ant-pm-2), 10% defined fetal bovine serum, heat inactivated (HyClone Laboratories Inc., Logan, UT, cat. SH30070.03HI), 50% L-WRN conditioned media (ATCC, cat. CRL-3276), 1.25 mM N-Acetyl-L-cysteine (Sigma-Aldrich, cat. A9165), 10 mM nicotinamide (Sigma-Aldrich, cat. N0636), 1X B-27 supplement (Thermo Fisher Scientific, cat. 17504044), 1X N-2 supplement (Thermo Fisher Scientific, cat. 17502048), 50 ng/mL human EGF (Thermo Fisher Scientific, cat. PHG0311), and 10 microM Y-27632 dihydrochloride (Tocris Bioscience, cat. 1254). The K12877-001-R-J1-PDC line was cultured in 6I media, which includes all 6C/Colon 1B media plus 10 ng/mL human FGF-10 (PeproTech, cat. 100-26), 1 ng/mL human FGF-2 (PeproTech, cat. 100-18B), 1 µM prostaglandin E2 (Tocris Bioscience, cat. 2296), […] hydrocortisone (Sigma-Aldrich, cat. H4001), and […] bovine insulin (Sigma-Aldrich, cat. I6634). The K86415-001-R-J1-PDC line was cultured in 6D media, which includes all 6C/Colon 1B media components minus the L-WRN conditioned media. The 485176-168-R4-J1-PDC was cultured in PANC media, which includes all 6C/Colon 1B media plus 100 ng/mL human FGF-10 (PeproTech, cat. 100-26), 500 nM SB-431542 (Selleckchem, cat. S1067), and 10 nM gastrin (Tocris Bioscience, cat. 3006). […]
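Further: viability read after seven days of drug exposure.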
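Wherever viability, T/C is given: 100% = DMSO vehicle control viability.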

IC50 (curve of first compound, second compound 0.000949 µM): > 10000 nM
IC50 (curve of first compound, second compound 0.003 µM): > 10000 nM
IC50 (curve of first compound, second compound 0.00949 µM): 292 nM
IC50 (curve of first compound, second compound 0.03 µM): 36.3 nM
IC50 (curve of first compound, second compound 0.0949 µM): < 31.6 nM
IC50 (curve of first compound, second compound 0.3 µM): < 31.6 nM
Structure (SMILES): CC(=O)OC12COC1CC(O)C1(C)C(=O)C(O)C3=C(C)C(OC(=O)C(O)C(NC(=O)OC(C)(C)C)c4ccccc4)CC(O)(C(OC(=O)c4ccccc4)C21)C3(C)C (centres undefined) + CCn1c(-c2cc(N3CCN(C)CC3)cnc2C(C)OC)c2c3cc(ccc31)-c1csc(n1)CC(NC(=O)C1CC1C)C(=O)N1CCCC(N1)C(=O)OCC(C)(C)C2
viability, T/C (second compound 0.000949 µM, first compound 0.0316 µM): 78.2%
viability, T/C (second compound 0.000949 µM, first compound 0.1 µM): 73.5%
viability, T/C (second compound 0.000949 µM, first compound 0.316 µM): 68.7%
viability, T/C (second compound 0.000949 µM, first compound 1 µM): 57.2%
viability, T/C (second compound 0.000949 µM, first compound 3.16 µM): 73.5%
viability, T/C (second compound 0.000949 µM, first compound 10 µM): 52.7%
viability, T/C (second compound 0.003 µM, first compound 0.0316 µM): 81.4%
viability, T/C (second compound 0.003 µM, first compound 0.1 µM): 70.2%
viability, T/C (second compound 0.003 µM, first compound 0.316 µM): 59.7%
viability, T/C (second compound 0.003 µM, first compound 1 µM): 60.6%
viability, T/C (second compound 0.003 µM, first compound 3.16 µM): 56.5%
viability, T/C (second compound 0.003 µM, first compound 10 µM): 65.4%
viability, T/C (second compound 0.00949 µM, first compound 0.0316 µM): 75.3%
viability, T/C (second compound 0.00949 µM, first compound 0.1 µM): 53.5%
viability, T/C (second compound 0.00949 µM, first compound 0.316 µM): 52.1%
viability, T/C (second compound 0.00949 µM, first compound 1 µM): 44.7%
viability, T/C (second compound 0.00949 µM, first compound 3.16 µM): 49.7%
viability, T/C (second compound 0.00949 µM, first compound 10 µM): 34.3%
viability, T/C (second compound 0.03 µM, first compound 0.0316 µM): 58.1%
viability, T/C (second compound 0.03 µM, first compound 0.1 µM): 38.6%
viability, T/C (second compound 0.03 µM, first compound 0.316 µM): 42.1%
viability, T/C (second compound 0.03 µM, first compound 1 µM): 44.8%
viability, T/C (second compound 0.03 µM, first compound 3.16 µM): 42.9%
viability, T/C (second compound 0.03 µM, first compound 10 µM): 36.3%
viability, T/C (second compound 0.0949 µM, first compound 0.0316 µM): 36.5%
viability, T/C (second compound 0.0949 µM, first compound 0.1 µM): 36.6%
viability, T/C (second compound 0.0949 µM, first compound 0.316 µM): 36.4%
viability, T/C (second compound 0.0949 µM, first compound 1 µM): 33.3%
viability, T/C (second compound 0.0949 µM, first compound 3.16 µM): 32.4%
viability, T/C (second compound 0.0949 µM, first compound 10 µM): 29.6%
viability, T/C (second compound 0.3 µM, first compound 0.0316 µM): 35.2%
viability, T/C (second compound 0.3 µM, first compound 0.1 µM): 28.4%
viability, T/C (second compound 0.3 µM, first compound 0.316 µM): 33.9%
viability, T/C (second compound 0.3 µM, first compound 1 µM): 26.9%
viability, T/C (second compound 0.3 µM, first compound 3.16 µM): 30.9%
viability, T/C (second compound 0.3 µM, first compound 10 µM): 27.1%

IC50 (curve of compound): 597 nM [middle of 4 runs]
Structure (SMILES): C=CC(=O)Nc1cc(Nc2nccc(-c3cn(C)c4ccccc34)n2)c(OC)cc1N(C)CCN(C)C
viability, T/C (compound 0.00316 µM): 96.4% [middle of 4 runs]
viability, T/C (compound 0.01 µM): 92% [middle of 4 runs]
viability, T/C (compound 0.0316 µM): 83.7% [middle of 4 runs]
viability, T/C (compound 0.1 µM): 79.4% [middle of 4 runs]
viability, T/C (compound 0.316 µM): 63.1% [middle of 4 runs]
viability, T/C (compound 1 µM): 40.1% [middle of 4 runs]
